Laboratory results published in US10060935B2, “ApoIII and the treatment and diagnosis of diabetes” (BioCrine AB, priority 2003, dated 2018).
Entries after “also recorded” stand apart in the source; their conditions may differ.

Legend:
[1] = test system: pancreatic β-cells; test: Measurements of [Ca2+]i (fura-2) in β-cells upon depolarization with 25 mM KCl; assay type: cell-based, mouse; settings: for increase in [Ca2+]i / Ca2+ influx upon depolarization: 10 μg/ml, incubation of β-cells, versus vehicle (0.1% TFA) control
Protocol: Preparation of Cells Adult mice from a local colony (3) were starved overnight. Pancreatic islets were isolated by a collagenase technique and cell suspensions were prepared as previously described (4, 5). Cells were seeded onto glass coverslips and cultured at 37° C. in a humidified atmosphere of 5% CO2 in air. • Preparation and Purification of Sera: Sera from T1D patients and control subjects were collected, identically sterile-processed and stored frozen at −20° C. until used. The sera were heat-inactivated by incubation at 56° C. for 30 min. Thereafter β-cells were incubated overnight in RPMI 1640 culture medium with 10% of the sera and changes in [Ca^2+]i were recorded, subsequent to depolarization with 25 mM KCl. The five T1D sera that induced an enhanced [Ca^2+]i response were centrifuged and the supernatant was passed through a […] sterile filter. Samples were loaded on Sep-Pak C18 (Waters, Ma) preconditioned with 0.1% TFA. After a wash with 0.1% TFA, proteins were eluted with 60% acetonitrile in 0.1% TFA and thereafter lyophilized. Batches of one milligram of the lyophilized sample were dissolved in 500 μl 0.1% TFA, centrifuged and injected into a RP-HPLC with a Vydac C18 (0.46×25 cm) column (Grace Vydac, Hesperia, Ca). The separation was made using a linear gradient of 20-60% acetonitrile in 0.1% TFA for 40 min at 1 ml/min. Fractions of 1 ml were collected and lyophilized.
Measurements of [Ca^2+]i Cells, attached to coverslips, were pretreated with the different compounds as described in the results and thereafter incubated in basal medium with 2 μM fura-2AM (Molecular Probes, Eugene, Oreg.) for 30 min. The coverslips were mounted as the bottom of an open chamber and cells were perfused with medium. Fluorescence signals were recorded with a SPEX Fluorolog-2 system connected to an inverted Zeiss Axiovert epifluorescence microscope. The excitation and emission wavelengths were 340/380 and 510 nm, respectively. The results are presented as 340/380 excitation ratios, directly representative of [Ca^2+]i (7).

[2] = test system: voltage-gated L-type Ca2+-channel; test: Perforated-patch whole-cell patch clamp of Ca2+ currents in β-cells; assay type: cell-based, mouse; settings: β-cells incubated with 10 μg/ml apoCIII overnight; depolarizations −10 to 10 mV from holding potential −70 mV
Protocol: Patch Clamp Whole-cell Ca^2+ currents were recorded by using the perforated-patch variant of the whole-cell patch-clamp recording technique to eliminate the loss of soluble cytoplasmic components. Electrodes were filled with (in mM): 76 Cs2SO4, 1 MgCl2, 10 KCl, 10 NaCl, and 5 HEPES (pH 7.35), as well as amphotericin B (0.24 mg/ml) to permeabilize the cell membrane and allow low-resistance electrical access without breaking the patch. Pancreatic β-cells were incubated in RPMI 1640 medium with apoCIII (10:g/ml) or vehicle overnight. The cells were bathed in a solution containing (in mM): 138 NaCl, 10 tetraethylammonium chloride, 10 CaCl2, 5.6 KCl, 1.2 MgCl2, 5 HEPES and 3 D-glucose (pH 7.4). Whole-cell currents induced by voltage pulses (from a holding potential of −70 mV to several clamping potentials from −60 to 50 mV in 10 mV increments, 100 ms, 0.5 Hz) were filtered at 1 kHz and recorded. All recordings were made with an Axopatch 200 amplifier (Axon Instruments, Foster City, Calif.) at room temperature (about 22° C.). Acquisition and analysis of data were done using the software program pCLAMP6 (Axon Instruments, Foster City, Calif.).

[3] = test system: RINm5F cells; test: Flow cytometric analysis of cell death (Annexin V / propidium iodide); assay type: cell-based; settings: 40 μg/ml apoCIII added to culture medium with 10% control serum, 36 h
Protocol: Quantification of apoCIII Sera were collected and prepared as described above. The relative amounts of apoCIII in T1D serum and control serum, respectively were evaluated by comparisons of the peak area corresponding to apoCIII in the second RP-HPLC. • Flow Cytometric Analysis of Cell Death RINm5F cells were cultured for 36 h in the presence of 10% control serum, control serum and 40 μg/ml apoCIII or T1D serum with or without 100 or 200 μg/ml anti-apoCIII. The whole cell population was collected and stained with EGFP-conjugated Annexin V and propidium iodide (PI) (BD PharMingen) and analyzed on a FACscan using CELLQuest acquisition software (Becton Dickinson, Immunocytometry System). FACS gating, based on forward and side scatter, was used to exclude cellular debris and autofluorescence and typically 10 000 cells were selected for analysis.

[4] = test system: Ca2+-channel; test: Immunoblot experiments for direct interaction with the Ca2+-channel; assay type: binding; settings: immunoblot (data not shown)

apolipoprotein CIII [apoCIII]
increase in [Ca2+]i / Ca2+ influx upon depolarization [1]: stimulate Ca^2+ influx | increase in [Ca2+]i / Ca2+ influx upon depolarization ([1]; listed as ApoCIII): increase in [Ca^2+]i | effect on [Ca2+]i ([1]; apoCIII 1, 3 and 6 μg/ml in culture medium): did not see any effects | effect on [Ca2+]i ([1]; apoCIII 10-50 μg/ml in culture medium): responses | Ca2+-channel currents [2]: larger Ca^2+-channel currents than control cells; also recorded: activation of the voltage-gated L-type Ca^2+-channel | cell death [3]: increased cell death | cell death ([3]; listed as ApoCIII): β-cell death | direct interaction with the Ca2+-channel [4]: not revealed a direct interaction
